Source: US20240336613A1, “HETEROARYL COMPOUNDS FOR TREATING HUNTINGTON'S DISEASE” (PTC THERAPEUTICS, INC., priority 2021, published 2024)

System: Huntingtin protein (HTT)
Experiment: Endogenous Huntingtin Protein Assay (MSD electrochemiluminescence)
Assay type: cell-based
Settings: Table 1, Endogenous Huntingtin Protein Assay; read-out: IC50
Experimental: Compounds of Formula (I) were tested using the Meso Scale Discovery (MSD) Assay provided in International Application No. PCT/US2016/066042, filed on Dec. 11, 2016 and claiming priority to United States Provisional Application U.S. 62/265,652 filed on Dec. 10, 2015, the entire contents of which are incorporated herein by reference.
The Endogenous Huntingtin Protein assay used in Example 1 was developed using the ELISA-based MSD electrochemiluminescence assay platform.
Meso Scale Discovery (MSD) 96-well or 384-well plates were coated overnight at 4° C. with MW1 (expanded polyglutamine) or MAB2166 monoclonal antibody (for capture) at a concentration of 1 μg/mL in PBS (30 μL per well). Plates were then washed three times with 300 μL wash buffer (0.05% Tween-20 in PBS) and blocked (100 μL blocking buffer; 5% BSA in PBS) for 4-5 hours at room temperature with rotational shaking and then washed three times with wash buffer.
Samples (25 μL) were transferred to the antibody-coated MSD plate and incubated overnight at 4° C. After removal of the lysates, the plate was washed three times with wash buffer, and 25 μL of #5656S (Cell signaling; rabbit monoclonal) secondary antibody (diluted to 0.25 μg/mL in 0.05% Tween-20 in blocking buffer) was added to each well and incubated with shaking for 1 Hour at room temperature. Following incubation with the secondary antibody, the wells were rinsed with wash buffer after which 25 μL of goat anti-rabbit SULFO TAG secondary detection antibody (required aspect of the MSD system) (diluted to 0.25 μg/mL in 0.05% Tween-20 in blocking buffer) was added to each well and incubated with shaking for 1 hour at room temperature. After rinsing three times with wash buffer, 150 μL of read buffer T with surfactant (MSD) were added to each empty well, and the plate was imaged on a SI 6000 imager (MSD) according to manufacturers' instructions provided for 96- or 384-well plates.

| Molecule | IC50 |
| --- | --- |
| 2-{7-[(4S,5R)-5-fluoro-2,2-dimethylpiperidin-4-yl]-7H-pyrrolo[2,3-c]pyridazin-3-yl}-5-(1H-1,2,3-triazol-1-yl)phenol and 2-{7-[(4R,5S)-5-fluoro-2,2-dimethylpiperidin-4-yl]-7H-pyrrolo[2,3-c]pyridazin-3-yl}-5-(1H-1,2,3-triazol-1-yl)phenol [Cpd 12] | < 100 nM |
| Oc1cc(-n2ccnn2)ccc1-c1cc2ccn(C3CCNC4(CC4)C3)c2nn1 (centres unmarked) [Cpd 4, 2-[7-(4-azaspiro[2.5]octan-7-yl)-7H-pyrrolo[2,3-c]pyridazin-3-yl]-5-(1H-1,2,3-triazol-1-yl)phenol] | < 100 nM |
